Earlier results as cited in EP3297603B1, “CINEOLE-CONTAINING AQUEOUS COMPOSITION FOR NASAL APPLICATION” (Maria Clementine Martin Klosterfrau Vertriebsgesellschaft …, priority 2015, dated 2017).

Conditions: general property, reference to RÖMPP Chemielexikon

- Löslichkeit in Wasser: in Wasser unlöslich
Compound: CC12CCC(CC1)C(C)(C)O2 [1,8-Cineol, 1,3,3-Trimethyl-2-oxabicyclo[2.2.2]octan]
